From US20240166624A1, “PPARG INVERSE AGONISTS AND USES THEREOF” (Flare Therapeutics Inc., priority 2021, published 2024)

How the values were obtained:
[1] = target: T1, PPARG/RXRA LBD heterodimer (Homo sapiens, UniProt P37231); assay: PPARγ-MED1 blockade assay (TR-FRET, biotinylated MED1 LxxLL peptide); format: biochemical; conditions: WT PPARG LBD/WT RXRA LBD, 80 nM Rosiglitazone, 3 hours
T1 construct: His-TEV-Q203-Y477; Uniprot ID P37231-2; made in house; host or cells: E. coli
T1 sequence (P37231 203-477 isoform P37231-2): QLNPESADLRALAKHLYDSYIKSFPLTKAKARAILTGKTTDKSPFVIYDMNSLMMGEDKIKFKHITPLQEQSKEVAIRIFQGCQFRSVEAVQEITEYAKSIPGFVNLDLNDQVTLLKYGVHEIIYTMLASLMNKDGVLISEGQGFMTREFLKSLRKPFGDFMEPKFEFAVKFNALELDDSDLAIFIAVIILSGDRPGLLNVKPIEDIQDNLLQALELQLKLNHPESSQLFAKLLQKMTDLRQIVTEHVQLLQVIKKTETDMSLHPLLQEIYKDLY
T1 sequence (P19793 228-462 partner limits assumed): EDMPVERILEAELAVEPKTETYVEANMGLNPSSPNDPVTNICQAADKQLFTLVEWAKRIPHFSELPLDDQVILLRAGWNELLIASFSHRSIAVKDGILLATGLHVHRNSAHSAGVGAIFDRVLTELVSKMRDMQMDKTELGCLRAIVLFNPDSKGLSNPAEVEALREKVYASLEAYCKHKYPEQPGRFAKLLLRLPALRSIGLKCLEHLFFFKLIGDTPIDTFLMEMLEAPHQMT
Method: PPARγ-MED1 Blockade Assay:
Compound potency (IC50) and maximal extent of MED1 repulsion to PPARG were assessed a TR-FRET binding assay measuring association of a biotinylated MED1 LxxLL peptide (Biotin-[…]-amide) to PPARG/RXRA LBD heterodimer. Specifically, a 20 microliters of TR-FRET master mix consisting of 2 nM WT PPARG LBD (E. coli expressed, His-TEV-Q203-Y477; Uniprot ID P37231-2), 2 nM WT RXRA LBD (E. coli expressed, Flag-TEV-E228-T462; […]. Mixtures were incubated for 3 hours and read in an EnVision plate reader (Perkin Elmer) with Ex/Em 615/665. To determine the potency (IC50) and extent of MED1 repulsion, TR-FRET ratios were normalized to the average ratio of DMSO control wells (0%) and to the average minimum ratio for positive control compound (GW9662 (2-chloro-5-nitrobenzanilide); defined as 100%) in CDD Vault and analyzed using the Levenberg-Marquardt algorithm.

[2] = system: ANGPTL4, a PPARG target gene, in HT1197 (RXRA S427F mutation) cells; assay: Bladder cancer pharmacodynamic assay, HT1197 cell assay (qPCR of ANGPTL4); format: cell-based; conditions: Homo sapiens, 24 hours, 100 nM compound, relative to DMSO control
Method: Bladder Cancer Pharmacodynamic Assay
5637 (PPARG amplified) and HT1197 (RXRA S427F mutation) cells were used for assessment of modulation of PPARG target genes using quantitative PCR. Cells were treated for 24 hours with PPARG inverse agonists prior to analysis of FABP4 (IDT, Cat: Hs.PT 58.20106818) and ANGPTL4 (IDT, Cat: Hs.PT 58.25480012) expression, with expression of the housekeeping gene TBP (IDT, Cat: Hs.PT 58v.39858774) used to normalize expression across samples. Quantitative PCR was performed using an ABI QuantStudio 7 Flex Reaction system. Data were analyzed and reported relative to DMSO control using the comparative Ct method (ΔΔCt).

[3] = target: T2, PPARG/RXRA LBD heterodimer (Homo sapiens, UniProt P37231); assay: PPARγ-NCOR1 recruitment assay (TR-FRET, biotinylated NCOR1 ID2 peptide); format: biochemical; conditions: 80 nM Rosiglitazone, 3 hours, read-out: PPARG-NCOR recruitment assay EC50
T2 construct: His-TEV-Q203-Y477; Uniprot ID P37231-2; made in house; host or cells: E. coli
Method: PPARγ-NCOR1 Recruitment Assay:
Compound potency (EC50) and maximal extent of NCOR1 recruitment to PPARG were assessed a TR-FRET binding assay measuring association of a biotinylated NCOR1 ID2 peptide (Biotin-[…]-amide) to PPARG/RXRA LBD heterodimer. Specifically, a 20 microliters of TR-FRET master mix consisting of 2 nM WT PPARG LBD (E. coli expressed, His-TEV-Q203-Y477; Uniprot ID P37231-2), 2 nM WT RXRA LBD or mutant S427F RXRA LBD (E. coli expressed, Flag-TEV-E228-T462; […]. Mixtures were incubated for 3 hours and read in an EnVision plate reader (Perkin Elmer) with Ex/Em 615/665. To determine the potency (EC50) and extent of NCOR1 recruitment, TR-FRET ratios were normalized to the average ratio of DMSO control wells (0%) and to the average maximum ratio for positive control compound (T0070907 (2-chloro-5-nitro-N-4-pyridinyl-benzamide); defined as 100%) in CDD Vault and analyzed using the Levenberg-Marquardt algorithm.
T2 sequence (O75376 2251-2273 partner, one chain of several): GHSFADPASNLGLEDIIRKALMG

| SMILES | EC50 [1] [nM] | EC50 [3] [nM] | inhibition at 0.1 µM [2] [%] |
| --- | --- | --- | --- |
| N#Cc1ccc(Cl)c(-c2cc(=O)c3c(F)cc(Cl)cc3[nH]2)c1 [Example 16, 4-chloro-3-(7-chloro-5-fluoro-4-oxo-1,4-dihydroquinolin-2-yl)benzonitrile] | 100 to 1000 | 100 to 1000 | 88 |
| N#Cc1ccc(Cl)c(-c2cc(=O)c3c(F)c(C(F)(F)F)c(F)cc3[nH]2)c1 [Example 32, 4-chloro-3-(5,7-difluoro-4-oxo-6-(trifluoromethyl)-1,4-dihydroquinolin-2-yl)benzonitrile] | 100 to 1000 | 100 to 1000 | 31 |
| Cn1ccc(-c2c(F)cc3[nH]c(-c4cc(C#N)ccc4Cl)cc(=O)c3c2F)n1 [Example 47, 4-chloro-3-(5,7-difluoro-6-(1-methyl-1H-pyrazol-3-yl)-4-oxo-1,4-dihydroquinolin-2-yl)benzonitrile] | 100 to 1000 | 100 to 1000 | 66 |
| N#Cc1ccc(Cl)c(-c2cc(=O)c3c(F)c(-n4cccn4)c(F)cc3[nH]2)c1 [Example 25, 4-chloro-3-(5,7-difluoro-4-oxo-6-(1H-pyrazol-1-yl)-1,4-dihydroquinolin-2-yl)benzonitrile] | 1000 to 10000 | 1000 to 10000 | 22 |
| N#Cc1ccc(Cl)c(-c2cc(=O)c3c(F)c(-n4ccnc4)c(F)cc3[nH]2)c1 [Example 29, 4-chloro-3-(5,7-difluoro-6-(1H-imidazol-1-yl)-4-oxo-1,4-dihydroquinolin-2-yl)benzonitrile] | 1000 to 10000 | 1000 to 10000 | 38 |
| N#Cc1ccc(Cl)c(-c2cc(=O)c3c(F)c(-c4ccc(C(F)F)cc4)c(F)cc3[nH]2)c1 [Example 36, 4-chloro-3-(6-(4-(difluoromethyl)phenyl)-5,7-difluoro-4-oxo-1,4-dihydroquinolin-2-yl)benzonitrile] | 10 to 100 | 10 to 100 | 65 |
| N#Cc1ccc(Cl)c(-c2cc(=O)c3c(F)c(-c4ccnc(C(F)(F)F)c4)c(F)cc3[nH]2)c1 [Example 53, 4-chloro-3-(5,7-difluoro-4-oxo-6-(2-(trifluoromethyl)pyridin-4-yl)-1,4-dihydroquinolin-2-yl)benzonitrile] | 100 to 1000 | 100 to 1000 | 36 |
| Cc1c(F)c(F)cc2[nH]c(-c3cc(C#N)ccc3Cl)cc(=O)c12 [Example 24, 4-chloro-3-(6,7-difluoro-5-methyl-4-oxo-1,4-dihydroquinolin-2-yl)benzonitrile] | 100 to 1000 | 100 to 1000 | 69 |
| Cc1ncc(-c2c(F)cc3[nH]c(-c4cc(C#N)ccc4Cl)cc(=O)c3c2F)cn1 [Example 42, 4-chloro-3-(5,7-difluoro-6-(2-methylpyrimidin-5-yl)-4-oxo-1,4-dihydroquinolin-2-yl)benzonitrile] | 100 to 1000 | 100 to 1000 | 74 |

Now from value to molecule, other results behind:

| EC50 [1] [nM] | EC50 [3] [nM] | SMILES | inhibition at 0.1 µM [2] [%] |
| --- | --- | --- | --- |
| > 10000 | 1000 to 10000 | CNC(=O)CCc1c(F)cc2[nH]c(-c3cc(C#N)ccc3Cl)cc(=O)c2c1F [Example 81, 3-(2-(2-chloro-5-cyanophenyl)-5,7-difluoro-4-oxo-1,4-dihydroquinolin-6-yl)-N-methylpropanamide] | 46 |
| 1000 to 10000 | 1000 to 10000 | N#Cc1ccc(Cl)c(-c2cc(=O)c3c(F)c(-c4nccc(=O)[nH]4)c(F)cc3[nH]2)c1 [Example 68, 4-chloro-3-(5,7-difluoro-4-oxo-6-(6-oxo-1,6-dihydropyrimidin-2-yl)-1,4-dihydroquinolin-2-yl)benzonitrile] | 28 |
| 100 to 1000 | 100 to 1000 | N#Cc1ccc(Cl)c(-c2cc(=O)c3c(F)c(-c4ccc5c(c4)NC(=O)C5)c(F)cc3[nH]2)c1 [Example 56, 4-chloro-3-(5,7-difluoro-4-oxo-6-(2-oxoindolin-6-yl)-1,4-dihydroquinolin-2-yl)benzonitrile] | 26 |
| 100 to 1000 | 100 to 1000 | CNC(=O)Cc1ccc(-c2c(F)cc3[nH]c(-c4cc(C#N)ccc4Cl)cc(=O)c3c2F)cc1 [Example 80, 2-(4-(2-(2-chloro-5-cyanophenyl)-5,7-difluoro-4-oxo-1,4-dihydroquinolin-6-yl)phenyl)-N-methylacetamide] | 47 |
| 100 to 1000 | 100 to 1000 | Cn1ncc(-c2c(F)cc3[nH]c(-c4cc(C#N)ccc4Cl)cc(=O)c3c2F)cc1=O [Example 63, 4-chloro-3-(5,7-difluoro-6-(1-methyl-6-oxo-1,6-dihydropyridazin-4-yl)-4-oxo-1,4-dihydroquinolin-2-yl)benzonitrile] | 24 |
| 1000 to 10000 | 1000 to 10000 | COC1CN(c2c(F)cc3[nH]c(-c4cc(C#N)ccc4Cl)cc(=O)c3c2F)C1 [Example 103, 4-chloro-3-(5,7-difluoro-6-(3-methoxyazetidin-1-yl)-4-oxo-1,4-dihydroquinolin-2-yl)benzonitrile] | 82 |
| 100 to 1000 | 100 to 1000 | Cc1cnc(-c2c(F)cc3[nH]c(-c4cc(C#N)ccc4Cl)cc(=O)c3c2F)cn1 [Example 60, 4-chloro-3-(5,7-difluoro-6-(5-methylpyrazin-2-yl)-4-oxo-1,4-dihydroquinolin-2-yl)benzonitrile] | 80 |
| 100 to 1000 | 100 to 1000 | N#Cc1ccc(Cl)c(-c2cc(=O)c3c(F)c(-c4cn[nH]c4)c(F)cc3[nH]2)c1 [Example 62, 4-chloro-3-(5,7-difluoro-4-oxo-6-(1H-pyrazol-4-yl)-1,4-dihdroquinolin-2-yl)benzonitrile] | 40 |
| 1000 to 10000 | 1000 to 10000 | CN(C)C(=O)C1CCN(c2c(F)cc3[nH]c(-c4cc(C#N)ccc4Cl)cc(=O)c3c2F)CC1 [Example 112, 1-(2-(2-chloro-5-cyanophenyl)-5,7-difluoro-4-oxo-1,4-dihydroquinolin-6-yl)-N,N-dimethylpiperidine-4-carboxamide] | 66 |
| 100 to 1000 | 100 to 1000 | CNC(=O)c1ccc(-c2c(F)cc3[nH]c(-c4cc(C#N)ccc4Cl)cc(=O)c3c2F)cc1 [Example 79, 4-(2-(2-chloro-5-cyanophenyl)-5,7-difluoro-4-oxo-1,4-dihydroquinolin-6-yl)-N-methylbenzamide] | 58 |
| 100 to 1000 | 100 to 1000 | CN(C)C(=O)c1cc(-c2c(F)cc3[nH]c(-c4cc(C#N)ccc4Cl)cc(=O)c3c2F)ccc1F [Example 82, 5-(2-(2-chloro-5-cyanophenyl)-5,7-difluoro-4-oxo-1,4-dihydroquinolin-6-yl)-2-fluoro-N,N-dimethylbenzamide] | 70 |
| 1000 to 10000 | 1000 to 10000 | CN(C)C(=O)C1CN(c2c(F)cc3[nH]c(-c4cc(C#N)ccc4Cl)cc(=O)c3c2F)C1 [Example 102, 1-(2-(2-chloro-5-cyanophenyl)-5,7-difluoro-4-oxo-1,4-dihydroquinolin-6-yl)-N,N-dimethylazetidine-3-carboxamide] | 81 |
